This test concerns M2 macrophages. The class given is cell-based, human. The following applies: inhibitor 30 min, TB511 1 µM 1 h, 24 h fresh medium, n=3.

Here are results for two molecules from paper PMC11973759 (Journal for Immunotherapy of Cancer, 2025).

On to `CN(C)CCCN1c2ccccc2Sc2ccc(Cl)cc21` [CPZ, chlorpromazine], for which the “Effect of inhibitor on TB511-induced apoptosis (CCK8)” value is on record as “decreasing TB511-induced apoptosis”.
Regarding `C=C1[C@@H](C)[C@H]2[C@H](Cc3ccccc3)NC(=O)[C@]23[C@H](OC(C)=O)/C=C/[C@@](C)(O)C(=O)[C@@H](C)C/C=C/[C@H]3[C@@H]1O` [CyD, cytochalasin D], the “Effect of inhibitor on TB511-induced apoptosis (CCK8)” value is given as “decreasing TB511-induced apoptosis”.
